Data reported in patent US6514686B2, “Method and composition for modulating amyloidosis” (The University of British Columbia, priority 1997, dated 2003).

Assays:
Format in all cases: cell-based
[1] = system: APPs secretion in wild-type PC12 cells; test: APPs secretion from wild-type PC12 cells, fifteen minute exposure
Text: Phorbol 12-myristate 13-acetate (PMA) was purchased from LC Service Corp., Woburn, Mass. All other materials were obtained as previously described in Example 1. Wild-type PC12 cells were purchased from the American Type Tissue Culture Collection # CRL-1721 and grown in DMEM with 5% FBS fetal bovine serum and 10% horse serum (GIBCO).
PC12 cells grown to confluence were pretreated for twelve hours in DMEM supplemented with charcoal-stripped calf serum (SIGMA) as described above. After pretreatment, cells were trypsinized, resuspended, and counted as described above. 10 mls each of 1.0×10^6 cells/ml PC12 cells were aliquoted into 15 ml conical tubes containing the appropriate treatment group. PMA was used as a positive control as previous experiments had shown that such treatment increases APPs release (Buxbaum, J. D. et al., “Processing of Alzheimer β/A4 amyloid precursor protein: Modulation by agents that regulate protein phosphorylation”, Proc. Natl. Acad. Sci. USA 87:6003-6006 (1990); Caporaso, G. L. et al., “Protein phosphorylation regulates secretion of Alzheimer β/A4 amyloid precursor protein”, Proc. Natl. Acad. Sci. USA 89:3055-3059 (1992); Mills, J. and P. B. Reiner, “Phorbol esters but not the cholinergic agonists oxotremorine-M and carbachol increase release of the amyloid precursor protein in cultured rat cortical neurons”, J. Neurochem. 67:1511-1518 (1996), the teachings of which are hereby incorporated by reference). The final percentage of DMSO in all treatment groups was normalized to 0.01% (v/v).
Treatment groups were as follows: a) Control; b) PMA (0.1 μM); c) RU-486 (0.1 μM). The concentration of (0.1 μM) RU-486 was chosen because it was near the EC50 mark (FIG. 4). 1.0 ml of each treatment group was pipetted into 1.5 eppendorf tubes and incubated at 37° C. in a […] incubator for fifteen minutes. Harvesting and concentration of APPs were performed as described in Example 1. Protein band separation on SDS-PAGE, visualization of bands, and quantification of APPs were also performed as previously described.
Materials and methods utilized were as outlined above. […]

[2] = system: APPs secretion in KB-3.1 cells transfected with human MDR1 (p-glycoprotein); test: APPs secretion from KB-3.1 cells transiently transfected with pHaMDR1; details: 0.1 μM, fifteen minutes, plated cells, transfection efficiency ~10-20%; FIG. 10
Protocol: KB-3.1 cells were grown as described above. The pHaMDR1 plasmid construct encoding human MDR1 was obtained as a gift from Dr. Ira Pastan (National Cancer Institute).
For calcium-phosphate transfections, cells were plated onto 10 cm polypropylene petri dishes (Falcon) at a density of 2.0×10^6 cells/dish. To prepare the cDNA for transfection, 15 μg/plate of pHaMDR1 cDNA was mixed together with 1/10 volumes of 3 M sodium Acetate, ˜3× volume of 100% ethanol in a 1.5 ml eppendorf tube and spun in a desktop centrifuge for thirty seconds. The tube was then filled to the top with ethanol and spun at 15,000 rpm at 4° C. for ten minutes. The ethanol was aspirated, leaving a tiny pellet of cDNA on the bottom. In a sterile fumehood, the cDNA was resuspended with 450 μl of 0.1× tris-EDTA(TE) ethylene diamine tetraacetic acid, tris EDTA and 50 μl of 2.5 M CaCl2. 500 μL of 2× BES (50 mM N, N-bis[2 Hydroxyethyl]2-aminoethanesu acid, 280 mM NaCl, 1.5 mM Na2HPO4.2 H2O, pH 6.96) was added to make a final volume of 1.0 ml. The entire mixture was allowed to sit for twenty minutes before adding the contents to the plate of cells. […]
Exposures were performed without resuspending the cells, in contrast to previous experiments described above. […] 5 μl from each sample was collected for protein quantification. Protein determination and APPs quantification were performed as previously described.

[3] = system: APPs secretion in KB-3.1 human carcinoma cell line; test: APPs secretion from KB-3.1 cells with sub-detectable p-glycoprotein
Protocol: These cells were grown in DMEM with 10% FBS. All materials and methods are as outlined as above.

[4] = system: APPs secretion in GSrasDN1 PC12 cells; test: APPs secretion from GSrasDN1 PC12 cells (22C11 western blot, densitometry)
Text: The GSrasDN1 PC12 subline (Dr. Simon Halegous (State University of New York at Stony Brook)) expressing the dominant inhibitory mutant ras gene, p21^N17 under the control of a dexamethasone-inducible MMTV promoter (mouse mammary tumor virus), obtained as a gift from Dr. Simon Halegoua, (Kremer et al., J. Cell Biol. 115(3):809-819 (1991)) and grown in Dulbecco's modified Eagles' medium (DMEM, GIBCO) containing 5% fetal bovine serum (FBS: v/v) and 10% heat inactivated horse serum (HS, GIBCO).
RU-486 and NGF were solubilized in dimethylsulfoxide (DMSO). DMSO was used as a control vehicle in all experiments.
For drug exposure experiments in GSrasDN1 PC12 cells, cells were grown to confluence in 75 cm^2 polypropylene culture flasks from Falcon. Twelve hours prior to drug treatment, the culture medium was aspirated using a pasteur pipette and replaced with 10 ml of DMEM supplemented with 15% charcoal-stripped calf serum (SIGMA) to remove complement, immunoglobulins and endogenous steroid hormones secreted from the cells. Twelve hours later, this supplemental medium was aspirated and replaced with 10 ml of DMEM containing the treatment drugs. Flasks were allotted into the following treatment groups: a) Control and b) RU-486 (3.0 μM). DMSO concentrations were normalized to 0.06% (v/v) in all flasks.
Twelve hours following drug exposure, the medium was again aspirated and the cells were washed once with 10 ml of phosphate-buffered saline (PBS, SIGMA). Cells were removed from the bottom of the flask by incubating with 1.0 ml of trypsin (GIBCO) for five minutes. […]
After the fifteen minutes had elapsed, the tubes were placed immediately on ice to stop any reactions and 200 μl of a protease cocktail (100 μM PMSF (phenylmethanesulfonyl fluoride), 5 μg/ml Leupeptin, 5 μg/ml Aprotinin, and 5)μg/ml Pepstatin) was added to each tube. […] The nuclear fraction was pelletted down at 14,000 rpm for ten min. and 5 μl of cellular homogenate was collected for a protein quantification. […]

[5] = RU-486, dexamethasone 0.1 μM, progesterone, desmethoxyverapamil 1 μM, FIG. 7, 8

## CCCCCCCCCCCCCC(=O)O[C@@H]1[C@@H](C)[C@@]2(O)[C@@H](C=C(CO)C[C@]3(O)C(=O)C(C)=C[C@@H]23)[C@@H]2C(C)(C)[C@]12OC(C)=O [PMA, Phorbol 12-myristate 13-acetate]
[1]; 0.1 μM, no drug pretreatment, FIG. 5
  effect on APPs secretion: increase
[2]
  regulation of APPs secretion: restored regulation
[3]; cells in suspension, FIG. 9
  modulation of APPs secretion: do not regulate
[3]; non-transfected cells exposed while plated, 0.1 μM, fifteen minutes
  regulation of APPs secretion: no regulation

## CC#C[C@]1(O)CC[C@H]2[C@@H]3CCC4=CC(=O)CCC4=C3[C@@H](c3ccc(N(C)C)cc3)C[C@@]21C [RU-486, 17β-hydroxy-11β-[4-dimethylaminophenyl]-17α prop-l-ynyl estra-4,9-dien-3 one]
[4]; RU-486 3.0 μM versus NGF 50 ng/ml, FIG. 2
  increase in APPs secretion over NGF: ~6 fold
[4]; RU-486 3.0 μM, twelve hours exposure, APPs collected fifteen minutes, FIG. 2
  increase in APPs secretion over control samples: ~12.5 fold
[4]; at 3.0 μM RU-486, sub-maximal concentration, FIG. 4
  increased APPs secretion: ~21 fold

## COc1cccc(CCN(C)CCCC(C#N)(c2ccc(OC)c(OC)c2)C(C)C)c1 (stereo not drawn) [desmethoxyverapamil]
[1]; [5]
  effect on APPs secretion: significantly increased

## CC(=O)[C@H]1CC[C@H]2[C@@H]3CCC4=CC(=O)CC[C@]4(C)[C@H]3CC[C@]12C [progesterone, Progesterone]
[1]; [5]
  effect on APPs secretion: significantly increased
